Measurements reported in PubChem BioAssay (NCI).
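Assay format: 96-well plates, 48-hour exposure. GI50 = concentration required for 50% inhibition of growth. TGI denotes the concentration required for complete inhibition of growth.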

Key:
Test in all cases: NCI anticancer screen, dose series, 48 h
[1] = test system: SW-620 colon
[2] = test system: RXF 393 renal
[3] = test system: U251 CNS
[4] = test system: NCI-H522 lung
[5] = test system: HCT-15 colon
[6] = test system: COLO 205 colon
[7] = test system: UO-31 renal
[8] = test system: NCI-H23 lung
[9] = test system: BT-549 breast
[10] = test system: K-562 leukemia
[11] = test system: SNB-19 CNS
[12] = test system: KM12 colon
[13] = test system: UACC-257 melanoma
[14] = test system: ACHN renal
[15] = test system: T-47D breast
[16] = test system: OVCAR-5 ovarian
[17] = test system: NCI-H460 lung
[18] = test system: NCI/ADR-RES ovarian
[19] = test system: A549 NSCLC
[20] = test system: EKVX NSCLC
[21] = test system: SR leukemia
[22] = test system: A498 renal
[23] = test system: NCI-H226 lung
[24] = test system: SK-MEL-5 melanoma
[25] = test system: MOLT-4 leukemia
[26] = test system: OVCAR-4 ovarian
[27] = test system: CCRF-CEM leukemia
[28] = test system: 786-0 renal
[29] = test system: RPMI-8226 leukemia
[30] = test system: LOX IMVI melanoma
[31] = test system: SF-268 CNS
[32] = test system: MDA-MB-468 breast
[33] = test system: CAKI-1 renal
[34] = test system: HS 578T breast
[35] = test system: MDA-MB-435
[36] = test system: HOP-92 NSCLC
[37] = test system: SF-539 CNS
[38] = test system: MDA-MB-231 breast
[39] = test system: IGROV1 ovarian
[40] = test system: OVCAR-8 ovarian
[41] = test system: SN12C renal
[42] = test system: SF-295 CNS
[43] = test system: PC-3 prostate
[44] = test system: SK-OV-3 ovarian
[45] = test system: MALME-3M melanoma
[46] = test system: HT29 colon
[47] = test system: HL-60(TB) leukemia
[48] = test system: M14 melanoma
[49] = test system: HCT-116 colon
[50] = test system: TK-10 renal
[51] = test system: MCF7 breast
[52] = test system: SNB-75 CNS
[53] = test system: HOP-62 NSCLC
[54] = test system: UACC-62 melanoma
[55] = test system: SK-MEL-28 melanoma
[56] = test system: DU-145 prostate
[57] = test system: OVCAR-3 ovarian
[58] = test system: HCC-2998 colon
[59] = test system: SK-MEL-2 melanoma

Fc1ccc(N2CC(Cn3c(C(F)(F)F)cc4c(Cl)ncnc43)C2)c(F)c1
GI50 [1]: 1890 nM
TGI [1]: 3.85 µM
GI50 [2]: 2070 nM
TGI [2]: 4.99 µM
GI50 [3]: 1910 nM
TGI [3]: 3.83 µM
GI50 [4]: 1820 nM
TGI [4]: 3.97 µM
GI50 [5]: 1790 nM
TGI [5]: 3.55 µM
GI50 [6]: 15.1 µM
TGI [6]: 32.5 µM
GI50 [7]: 2680 nM
TGI [7]: 10.8 µM
GI50 [8]: 2650 nM
TGI [8]: 8.34 µM
GI50 [9]: 10.7 µM
TGI [9]: 22.9 µM
GI50 [10]: 2340 nM
TGI [10]: 7.13 µM
GI50 [11]: 15.1 µM
TGI [11]: 28.9 µM
GI50 [12]: 16.1 µM
TGI [12]: 31.2 µM
GI50 [13]: 3.1 µM
TGI [13]: 12 µM
GI50 [14]: 12.9 µM
TGI [14]: 27.5 µM
GI50 [15]: 13.9 µM
TGI [15]: 66.8 µM
GI50 [16]: 17.8 µM
TGI [16]: 37.3 µM
GI50 [17]: 3.99 µM
TGI [17]: 14.3 µM
GI50 [18]: 10.2 µM
TGI [18]: 26.5 µM
GI50 [19]: 17.3 µM
TGI [19]: 35.7 µM
GI50 [20]: 6.54 µM
TGI [20]: 19.8 µM
GI50 [21]: 2140 nM
TGI [21]: 6.92 µM
GI50 [22]: 23.3 µM
TGI [22]: 74.2 µM
GI50 [23]: 14 µM
TGI [23]: 31 µM
GI50 [24]: 10.9 µM
TGI [24]: 22.9 µM
GI50 [25]: 3.12 µM
TGI [25]: 8.97 µM
GI50 [26]: 12.9 µM
TGI [26]: 27 µM
GI50 [27]: 10.4 µM
TGI [27]: > 100 µM
GI50 [28]: 14.9 µM
TGI [28]: 29.1 µM
GI50 [29]: 23.4 µM
TGI [29]: 64.9 µM
GI50 [30]: 1630 nM
TGI [30]: 2990 nM
GI50 [31]: 3.14 µM
TGI [31]: 11.2 µM
GI50 [32]: 1630 nM
TGI [32]: 3.2 µM
GI50 [33]: 11.8 µM
TGI [33]: 24.2 µM
GI50 [34]: 7.06 µM
TGI [34]: 41.8 µM
GI50 [35]: 4.95 µM
TGI [35]: 17.6 µM
GI50 [36]: 11 µM
TGI [36]: 25.4 µM
GI50 [37]: 13.7 µM
TGI [37]: 28.3 µM
GI50 [38]: 1630 nM
TGI [38]: 3.09 µM
GI50 [39]: 1850 nM
TGI [39]: 3.54 µM
GI50 [40]: 2150 nM
TGI [40]: 5.07 µM
GI50 [41]: 1950 nM
TGI [41]: 4.97 µM
GI50 [42]: 11.5 µM
TGI [42]: 24.5 µM
GI50 [43]: 3.07 µM
TGI [43]: 10.9 µM
GI50 [44]: 14.6 µM
TGI [44]: 29.6 µM
GI50 [45]: 12.6 µM
TGI [45]: 25.2 µM
GI50 [46]: 3.44 µM
TGI [46]: 16.3 µM
GI50 [47]: 2260 nM
TGI [47]: 6.38 µM
GI50 [48]: 2980 nM
TGI [48]: 10.7 µM
GI50 [49]: 1920 nM
TGI [49]: 3.93 µM
GI50 [50]: 19.3 µM
TGI [50]: 50.7 µM
GI50 [51]: 8.16 µM
TGI [51]: 23.6 µM
GI50 [52]: 12.1 µM
TGI [52]: 24.8 µM
GI50 [53]: 17.1 µM
TGI [53]: 33.8 µM
GI50 [54]: 3.16 µM
TGI [54]: 13 µM
GI50 [55]: 2080 nM
TGI [55]: 4.91 µM
GI50 [56]: 12.6 µM
TGI [56]: 25.8 µM
GI50 [57]: 2550 nM
TGI [57]: 6.42 µM
GI50 [58]: 1960 nM
TGI [58]: 3.48 µM
GI50 [59]: 15.9 µM
TGI [59]: 31.2 µM
